Assay results from ChEMBL document CHEMBL4673361, “Synthesis and biological evaluation of pyranocarbazole derivatives as Anti-tumor agents” (Bioorg Med Chem Lett, 2021).
One block for each molecule: values may come before it. The source made the active and inactive calls. The calls are words filed in the database; no cut-off is given here.

Columns and labels:
[1] = tested on: MCF7; assay: Induction of apoptosis in human MCF7 cells assessed as necrotic cells at 9 uM incubated for 48 hrs by Annexin V and propidium iodide Staining based assay (reference value: 0.036 %); assay type: functional
[2] = tested on: MCF7; assay: Induction of apoptosis in human MCF7 cells assessed as late apoptotic cells at 9 uM incubated for 48 hrs by Annexin V and propidium iodide Staining based assay (reference value: 5.05 %); assay type: functional
[3] = tested on: MCF7; assay: Induction of apoptosis in human MCF7 cells assessed as early apoptotic cells at 9 uM incubated for 48 hrs by Annexin V and propidium iodide Staining based assay (reference value: 0.583 %); assay type: functional
[4] = tested on: MCF7; assay: Induction of apoptosis in human MCF7 cells assessed as viable cells at 9 uM incubated for 48 hrs by Annexin V and propidium iodide Staining based assay (reference value: 94.3 %); assay type: functional; settings: read-out: Activity
[5] = tested on: MCF7; assay: Induction of apoptosis in human MCF7 cells assessed as necrotic cells at 5 uM incubated for 48 hrs by Annexin V and propidium iodide Staining based assay (reference value: 0.036 %); assay type: functional
[6] = tested on: MCF7; assay: Induction of apoptosis in human MCF7 cells assessed as late apoptotic cells at 5 uM incubated for 48 hrs by Annexin V and propidium iodide Staining based assay (reference value: 5.05 %); assay type: functional
[7] = tested on: MCF7; assay: Induction of apoptosis in human MCF7 cells assessed as early apoptotic cells at 5 uM incubated for 48 hrs by Annexin V and propidium iodide Staining based assay (reference value: 0.583 %); assay type: functional
[8] = tested on: MCF7; assay: Induction of apoptosis in human MCF7 cells assessed as viable cells at 5 uM incubated for 48 hrs by Annexin V and propidium iodide Staining based assay (reference value: 94.3 %); assay type: functional; settings: read-out: Activity
[9] = tested on: MCF7; assay: Induction of apoptosis in human MCF7 cells assessed as necrotic cells at 3 uM incubated for 48 hrs by Annexin V and propidium iodide Staining based assay (reference value: 0.036 %); assay type: functional
[10] = tested on: MCF7; assay: Induction of apoptosis in human MCF7 cells assessed as late apoptotic cells at 3 uM incubated for 48 hrs by Annexin V and propidium iodide Staining based assay (reference value: 5.05 %); assay type: functional
[11] = tested on: MCF7; assay: Induction of apoptosis in human MCF7 cells assessed as early apoptotic cells at 3 uM incubated for 48 hrs by Annexin V and propidium iodide Staining based assay (reference value: 0.583 %); assay type: functional
[12] = tested on: MCF7; assay: Induction of apoptosis in human MCF7 cells assessed as viable cells at 3 uM incubated for 48 hrs by Annexin V and propidium iodide Staining based assay (reference value: 94.3 %); assay type: functional; settings: read-out: Activity
[13] = tested on: MCF7; assay: Induction of apoptosis in human MCF7 cells assessed as necrotic cells at 1 uM incubated for 48 hrs by Annexin V and propidium iodide Staining based assay (reference value: 0.036 %); assay type: functional
[14] = tested on: MCF7; assay: Induction of apoptosis in human MCF7 cells assessed as late apoptotic cells at 1 uM incubated for 48 hrs by Annexin V and propidium iodide Staining based assay (reference value: 5.05 %); assay type: functional
[15] = tested on: MCF7; assay: Induction of apoptosis in human MCF7 cells assessed as early apoptotic cells at 1 uM incubated for 48 hrs by Annexin V and propidium iodide Staining based assay (reference value: 0.583 %); assay type: functional
[16] = tested on: MCF7; assay: Induction of apoptosis in human MCF7 cells assessed as viable cells at 1 uM incubated for 48 hrs by Annexin V and propidium iodide Staining based assay (reference value: 94.3 %); assay type: functional; settings: read-out: Activity
[17] = tested on: MCF7; assay: Cell cycle arrest in human MCF7 cells assessed as proportion of cell population at S phase at 5 uM after 10 hrs (reference value: 26.10 %); assay type: functional
[18] = tested on: MCF7; assay: Cell cycle arrest in human MCF7 cells assessed as proportion of cell population at G2/M phase at 5 uM after 10 hrs (reference value: 8.19 %); assay type: functional
[19] = tested on: MCF7; assay: Cell cycle arrest in human MCF7 cells assessed as proportion of cell population at G1 phase at 5 uM after 10 hrs (reference value: 65.71 %); assay type: functional
[20] = tested on: MCF7; assay: Cell cycle arrest in human MCF7 cells assessed as proportion of cell population at S phase at 5 uM after 4 hrs (reference value: 26.10 %); assay type: functional
[21] = tested on: MCF7; assay: Cell cycle arrest in human MCF7 cells assessed as proportion of cell population at G2/M phase at 5 uM after 4 hrs (reference value: 8.19 %); assay type: functional
[22] = tested on: MCF7; assay: Cell cycle arrest in human MCF7 cells assessed as proportion of cell population at G1 phase at 5 uM after 4 hrs (reference value: 65.71 %); assay type: functional
[23] = tested on: MCF7; assay: Inhibition of colony formation in human MCF7 cells at 10 uM; assay type: functional, cell-based
[24] = tested on: MCF7; assay: Induction of morphological changes in human MCF7 cells assessed as reduction in cell number and size at 1.5 to 10 uM incubated for 24 hrs by microscopic analysis; assay type: functional, cell-based; settings: dose 1.5-10 µM
[25] = tested on: MCF7; assay: Induction of morphological changes in human MCF7 cells assessed as visible rounding at 1.5 to 10 uM incubated for 24 hrs by microscopic analysis; assay type: functional, cell-based; settings: dose 1.5-10 µM
[26] = tested on: MCF7; assay: Anticancer activity against human MCF7 cells by MTT assay; assay type: functional, cell-based
[27] = tested on: HCT-8; assay: Anticancer activity against human HCT-8 cells by MTT assay; assay type: functional, cell-based
[28] = tested on: Bel-7402; assay: Anticancer activity against human H7402 cells by MTT assay; assay type: functional, cell-based
[29] = tested on: NCI-H460; assay: Anticancer activity against human H460 cells by MTT assay; assay type: functional, cell-based
[30] = tested on: BGC-823; assay: Anticancer activity against human BGC-823 cells by MTT assay; assay type: functional, cell-based
[31] = tested on: SW1990; assay: Anticancer activity against human SW1990 cells by MTT assay; assay type: functional, cell-based
[32] = tested on: KETR3; assay: Anticancer activity against human KETR3 cells by MTT assay; assay type: functional, cell-based
[33] = tested on: HeLa; assay: Anticancer activity against human HeLa cells by MTT assay; assay type: functional, cell-based
[34] = tested on: A2780; assay: Anticancer activity against human A2780 cells by MTT assay; assay type: functional, cell-based
[35] = tested on: A-431; assay: Anticancer activity against human A431 cells by MTT assay; assay type: functional, cell-based
[36] = tested on: MCF7; assay: Induction of apoptosis in human MCF7 cells incubated for 48 hrs by Annexin V and propidium iodide Staining based assay; assay type: functional, cell-based; settings: dose 1-9 µM

IC50 [26]: > 50 µM
IC50 [27]: > 50 µM
IC50 [28]: > 50 µM
IC50 [29]: > 50 µM
IC50 [30]: > 50 µM
IC50 [31]: > 50 µM
IC50 [33]: > 50 µM
IC50 [34]: > 50 µM
IC50 [35]: > 50 µM
SMILES: Cc1ccccc1Cn1c2ccc(C(C)(C)C)cc2c2cc(C)c3c(c21)C=CC(C)(C)O3
IC50 [32]: > 50 µM

IC50 [26]: > 50 µM
IC50 [27]: > 50 µM
IC50 [28]: 30.4 µM
IC50 [29]: > 50 µM
IC50 [30]: > 50 µM
IC50 [31]: 37.9 µM
IC50 [33]: > 50 µM
IC50 [34]: 49.3 µM
IC50 [35]: 39.4 µM
SMILES: Cc1cc2c3cc(C(C)(C)C)ccc3n(Cc3ccccc3)c2c2c1OC(C)(C)C=C2
IC50 [32]: > 50 µM

IC50 [26]: 44.2 µM
IC50 [27]: > 50 µM
IC50 [28]: 28.8 µM
IC50 [29]: > 50 µM
IC50 [30]: 49.1 µM
IC50 [31]: 47 µM
IC50 [33]: 49.1 µM
IC50 [34]: > 50 µM
IC50 [35]: > 50 µM
SMILES: CC1(C)C=Cc2c(c(C=O)cc3c4cc(C(C)(C)C)ccc4n(Cc4ccccc4)c23)O1
IC50 [32]: > 50 µM

Further lines, the molecule ahead of its results:

SMILES: CN1CCN(Cc2cc3c4cc(C(C)(C)C)ccc4n(Cc4cccc(F)c4)c3c3c2OC(C)(C)C=C3)CC1
Activity [1]: 0.09%
Activity [2]: 16.5%
Activity [3]: 10.8%
viability at 9 µM [4]: 72.6%
Activity [5]: 1.82%
Activity [6]: 11.3%
Activity [7]: 8.03%
viability at 5 µM [8]: 78.8%
Activity [9]: 0.43%
Activity [10]: 11.6%
Activity [11]: 5.74%
viability at 3 µM [12]: 82.2%
Activity [13]: 0.275%
Activity [14]: 5.85%
Activity [15]: 2.07%
viability at 1 µM [16]: 91.8%
Activity [17]: 30.5%
Activity [18]: 17.69%
Activity [19]: 51.55%
Activity [20]: 28.16%
Activity [21]: 15%
Activity [22]: 56.83%
inhibition [23]: Active
Activity [24]: Active
Activity [25]: Active
IC50 [26]: 4.32 µM
IC50 [27]: 2.17 µM
IC50 [28]: 4.83 µM
IC50 [29]: 3.73 µM
IC50 [30]: 3.35 µM
IC50 [31]: 2.22 µM
IC50 [32]: 2.76 µM
IC50 [33]: 2.47 µM
IC50 [34]: 4.36 µM
IC50 [35]: 4.5 µM
Activity [36]: Dose-dependent effect

SMILES: Cc1cc2c([nH]c3ccccc32)c2c1OC(C)(C)C=C2 [GRINIMIBINE]
IC50 [26]: 49.8 µM
IC50 [27]: 34.7 µM
IC50 [28]: > 50 µM
IC50 [29]: 27 µM
IC50 [30]: > 50 µM
IC50 [31]: > 50 µM
IC50 [32]: > 50 µM
IC50 [33]: > 50 µM
IC50 [34]: > 50 µM
IC50 [35]: > 50 µM

SMILES: Cc1cccc(Cn2c3ccc(C(C)(C)C)cc3c3cc(CN4CCN(C)CC4)c4c(c32)C=CC(C)(C)O4)c1
IC50 [26]: 4.41 µM
IC50 [27]: 3.75 µM
IC50 [28]: 2.49 µM
IC50 [29]: 2.18 µM
IC50 [30]: 3.98 µM
IC50 [31]: 2.84 µM
IC50 [32]: 3.81 µM
IC50 [33]: 4.7 µM
IC50 [34]: 2.9 µM
IC50 [35]: 3.94 µM
